The text below walks through data of PMC12348844, “Anti-Trypanosoma cruzi Potential of New Pyrazole-Imidazoline Derivatives” (Molecules, 2025).

Each structure is given as a SMILES string.

As usually defined, the IC50 is the midpoint of a concentration-inhibition curve. One may read the IC90 as the concentration needed for an effect of 90%. One may read the CC50 as the concentration giving 50% cytotoxicity. Read a high CC50 as lower toxicity to the cells.

Series [1] has as its system T. cruzi Dm28c-Luc trypomastigotes. Description: Anti-T. cruzi in vitro assay, trypomastigotes (luminescence). Format: cell-based. To be noted: Trypanosoma cruzi, 24 h, mean ± SD. Here is the method:
The genetically modified Trypanosoma cruzi, clone Dm28c (TcI), expressing luciferase (Dm28c-Luc), was kindly provided by Dr. Cristina Henriques from Oswaldo Cruz Institute—Fiocruz. The parasites were maintained using Vero cell cultures in RPMI 1640 medium enriched with 10% FBS. At 4 days post-infection (dpi), the trypomastigotes released into the culture supernatant were harvested, subjected to centrifugation at 800× g for 20 min at 4 °C, and quantified with a Neubauer chamber. The isolated trypomastigotes were subsequently used for phenotypic screening, drug efficacy assessments employing a 3D cardiac model, washout experiments to evaluate reversibility, drug combination studies, and enzymatic assays.
Drug susceptibility assays were performed on T. cruzi Dm28c-Luc, a genetically engineered parasite expressing luciferase. The drug screening used both trypomastigotes and intracellular amastigotes. Trypomastigotes (1 × 10^6 parasites/well) were added to white 96-well plates with clear bottoms. […] The luminescence was measured using a Glomax Multi-Detection plate reader (Promega Corporation, Madison, WI, USA).

Series [2] in a line: Cytotoxicity assay, Vero cells (CellTiter-Glo). To be noted: African green monkey, mean ± SD. Type of series: cell-based. The method, then: Vero cells, obtained from the Rio de Janeiro Cell Bank (BCRT code 0245) and maintained through weekly subculturing with a dissociation solution containing 0.25% trypsin-EDTA, initiated once the monolayer reached an 80–100% confluence. Following harvesting, the cells were washed and resuspended in RPMI 1640 medium enriched with 10% fetal bovine serum (FBS). Cultures were maintained at 37 °C in a 5% CO2-humidified incubator. These cultures were used for drug screening assays and for producing culture-derived trypomastigotes of T. cruzi.
Cytotoxicity assays were performed using Vero cells, which were seeded at a density of 1.5 × 10^4 cells per well in white 96-well plates with clear bottoms. Following a 24 h adhesion period, the cultures were incubated at 37 °C in a 5% CO2 atmosphere. […] After 72 h of incubation, cell viability was assessed by adding CellTiter-Glo reagent (Promega Corporation, Madison, WI, USA), which induces cell lysis and reacts with the released ATP to produce luminescence. The resulting luminescence was measured using a Glomax Multi-Detection plate reader (Promega Corporation, Madison, WI, USA). The half-maximal inhibitory concentration (CC50) for cell viability was then calculated using GraphPad Prism software version 8.2.1.
A general note: Cellular ATP, detected with luciferase, serves as a proxy for viable cell number.

Series [3] deals with intracellular amastigotes of T. cruzi. Description: Drug combination with Bz, fixed-ratio isobologram, intracellular amastigotes. To be noted: Trypanosoma cruzi; proportion 1k:Bz 5:0, 72 h; read-out: IC50 (Mean ± DP) in combination assay. Format: cell-based. Here is the method: The isobologram approach assessed the interaction between Bz and the promising candidate in intracellular amastigotes of T. cruzi. Vero cell cultures infected with T. cruzi (Dm28c-Luc) were treated for 72 h with various concentrations of combinations of Bz and the promising candidate, specifically at ratios of 5:0; 4:1; 3:2; 2:3; 1:4 and 0:5. The maximum concentration of each compound was established based on their IC50 values, ensuring both reached the fourth dilution in the serial dilution setup (1:3), culminating in a total of seven dilutions. After 72 h of treatment, parasite viability was measured by luminescence in a Glomax Multi-Detection plate reader (Promega Corporation, Madison, WI, USA) after incubation with luciferin. The IC50 values of each treatment combination were calculated individually, and the fractional inhibitory concentration index (FICI) was derived using the formula FICI = IC50 of the combination/IC50 of the compound alone. The overall FICI (ΣFICI) was calculated by summing the FICIs for both compounds in each combination group, while the average ΣFICI (xΣFICI) represented the overall mean across all combination groups. The xΣFICI values were then employed to classify the interaction as synergistic (xΣFICI ≤ 0.5), additive (0.5 < xΣFICI < 4), or antagonistic (xΣFICI > 4). […]

The test system of series [4] is T. cruzi cysteine protease. The series is described as follows: Cysteine protease activity in trypomastigote protein extract (Z-Phe-Arg-AMC). As to conditions: 90 min, 37 °C, 33.3, 100 and 300 µM tested. Type of series: biochemical, Trypanosoma cruzi. Here is the method: Total proteins from T. cruzi Dm28c-Luc were extracted using a lysis buffer [100 mM Tris-HCl pH 8.0, 150 mM NaCl, 10% glycerol, 0.5% Triton X-100]. The protein concentration was quantified using the Bradford assay, with bovine serum albumin (BSA) used to establish the standard curve. For the assessment of cysteine protease activity, 5 μg of the protein extract was incubated in an acetate buffer [10 mM sodium acetate, pH 5.0], supplemented with 1 mM dithiothreitol (DTT) in a final volume of 100 μL. The reaction used a fluorogenic peptide substrate, N-benzoyloxycarbonyl-L-phenylalanyl-L-arginine 7-amino-4-methylcoumarin (Z-FR-AMC), at a concentration of 60 μM. Incubation was conducted at 37 °C for 90 min, with relative fluorescence changes measured using a SpectraMax M2e spectrophotometer (Molecular Devices, Sunnyvale, CA, USA). Inhibition assays were performed using three concentrations (33.3, 100, and 300 µM) of the promising candidate and trans-epoxysuccinyl-L-leucylamido(4-guanidino)butane (E-64), each analyzed separately. A control was included using a low DMSO concentration (≤1%). Enzymatic activity was expressed in µmol/min/mg of protein, with residual activity presented as a percentage.

On to `FC(F)(F)c1ccc(-n2cc(C3=NCCN3)cn2)cc1` [1k, 1-(4-trifluoromethylphenyl)-4-(4,5-dihydro-1H-imidazol-2-yl)-1H-pyrazole], for which, in series [1], the 50% inhibitory concentration (IC50) worked out at 72.2 ± 10.3 µM and the IC90 is over 100 µM. The same compound yielded a CC50 at 72 h in series [2] of 244 ± 21.1 µM. For the same compound, the IC50 in series [3] was determined as 3.75 ± 0.35 µM. The “inhibition of cysteine protease activity” value in series [4] is reported as 3.76%.
